Molecules are shown by their SMILES. Where a name gives a salt, the structure may show the parent alone.

For one test, the target named is T1, factor Xa (Bos taurus, UniProt P00743).
T1 construct: purchased Diagnostic Reagents Ltd, Thame, GB
Briefly: Determination of the inhibitory constants for factor Xa (chromogenic substrate Moc-D-Nle-Gly-Arg-pNA, Dixon method). Type of test: biochemical, bovine. The conditions noted are these: for Ki: bovine factor Xa, 25° C., pH 8.0, average of at least three determinations. As for the experimental part:
Determination of the inhibitory Effect
To determine the inhibitory effect, 200 μl of this buffer (0.05 M 0.154 M NaCl, 5% Ethanol, pH 8.0; contains the inhibitor), 25 μl of substrate (Moc-D-Nle-Gly-Arg-pNA in H2O; Pentapharm Ltd., Basle, Switzerland) and 50 μl of factor Xa (bovine, Diagnostic Reagents Ltd, thame, GB) were incubated at 25° C. After 3 min, the reaction was stopped By adding 25 μl of acetic acid (50%), and the absorption at 405 nm was determined using a Microplate Reader (MR 5000, Dynatech, Denkendorf, Germany). The Ki values were Founder by the Dixon method (boichem. J. 55, 170-171, 1953) by linear regression using a Computer program. The Ki values are the average of at least three determinations. The Thrombin inhibitions was determined in analogy to a method described earlier (Stürzebecher et al., J. Med. Chem. 40, 3091-3099, 1997).

The target of a further test is Thrombin (UniProt P00735). Briefly: Determination of the inhibitory constants for thrombin (method of Stürzebecher et al. 1997). The format is biochemical. From the text: The Ki values are the average of at least three determinations.

T1 sequence (P00743 234-492 limits assumed): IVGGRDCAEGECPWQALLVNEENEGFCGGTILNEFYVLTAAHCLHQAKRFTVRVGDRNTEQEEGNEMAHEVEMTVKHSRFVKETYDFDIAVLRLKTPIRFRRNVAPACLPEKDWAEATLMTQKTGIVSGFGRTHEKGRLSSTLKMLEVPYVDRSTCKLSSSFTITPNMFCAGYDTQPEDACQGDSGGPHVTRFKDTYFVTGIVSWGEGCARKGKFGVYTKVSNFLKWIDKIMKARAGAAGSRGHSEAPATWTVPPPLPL
T1 sequence (P00743 41-180 partner limits assumed): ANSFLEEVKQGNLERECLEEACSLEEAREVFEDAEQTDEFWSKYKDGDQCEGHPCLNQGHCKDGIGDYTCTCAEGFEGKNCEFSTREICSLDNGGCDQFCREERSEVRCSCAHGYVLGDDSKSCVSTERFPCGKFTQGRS

For the molecule `N=C(N)c1ccc(CNC(=O)CNC(=O)C(CCc2ccncc2)NS(=O)(=O)Cc2ccc(N)cc2)cc1` (stereo not drawn) [Compound 28], at factor Xa, the “selectivity ratio SR (SR = Ki thrombin/Ki factor Xa)” value (“selectivity ratio SR” for short) is 454. The Ki at factor Xa came out at 2.2 nM; at Thrombin, 1000 nM.
`N=C(N)c1ccc(CNC(=O)CNC(=O)C(CCc2ccncc2)NS(=O)(=O)Cc2ccccc2)cc1` (racemic) [Compound 1, Bzls-D,L-homoAla(4-Pyr)-Gly-4Amba×2 TFA]: at factor Xa, the “selectivity ratio SR” value was 690. Besides, the Ki on factor Xa turned out to be 2.9 nM; at Thrombin, 2000 nM.
As for `Nc1ccc(CNC(=O)CNC(=O)C(CCc2ccncc2)NS(=O)(=O)Cc2ccccc2)cn1` (stereo not drawn) [Compound 65], the “selectivity ratio SR” value on factor Xa is 833. Moreover, the results for the Ki on factor Xa and at Thrombin were 120 nM and 100000 nM, respectively.
Taken in the same sequence, the figures for `N=C(N)c1ccc(CNC(=O)CNC(=O)[C@H](NS(=O)(=O)Cc2ccccc2)C2Cc3ccccc3C2)cc1` [Compound 21] were 5.2, 29 nM and 150 nM.
For `N=C(N)c1ccc(CNC(=O)CNC(=O)[C@@H](/C=C/c2ccccc2)NS(=O)(=O)Cc2ccccc2)cc1` [Compound 40], in that order: 170, 6.5 nM and 1100 nM.
For the molecule `N=C(N)c1ccc(CNC(=O)[C@H](CO)NC(=O)[C@@H](CCc2ccncc2)NS(=O)(=O)Cc2ccccc2)cc1` [Compound 3a, Bzls-D,L-homoAla(4-Pyr)-Ser-4Amba×2 TFA], the “selectivity ratio SR” value at factor Xa worked out at 97. For the same molecule, the inhibitory constant (Ki) on factor Xa was 9.4 nM; at Thrombin, 910 nM.
In the case of `N=C(N)c1ccc(CNC(=O)CNC(=O)C(CCc2cc[n+]([O-])cc2)NS(=O)(=O)Cc2ccccc2)cc1` (stereo not drawn) [Compound 60], at factor Xa, the “selectivity ratio SR” value worked out at 730 and the Ki was determined as 4.8 nM. The molecule also yielded a Ki on Thrombin of 3500 nM.
`CS(=O)(=O)N[C@H](CCc1ccccc1)C(=O)NCC(=O)NCc1ccc(C(=N)N)cc1` [Compound 13]: on factor Xa, the “selectivity ratio SR” value was 1.2 and the affinity corresponds to a Ki of 1100 nM. This molecule had a Ki on Thrombin of 1300 nM.
Regarding `N=C(N)c1ccc(CNC(=O)[C@H](CO)NC(=O)[C@@H](CCc2ccccc2)NS(=O)(=O)Cc2ccccc2)cc1` [Compound 15], on factor Xa, the “selectivity ratio SR” value is given as 15. Besides, the Ki was found to be 40 nM at factor Xa and 600 nM at Thrombin.
Consider `N=C(N)c1ccc(CNC(=O)CNC(=O)[C@@H](CCc2ccccc2)NS(=O)(=O)Cc2cccc(O)c2)cc1` [Compound 42], for which, at factor Xa, the “selectivity ratio SR” value worked out at 288 and the Ki came to 7.2 nM. For the same molecule, the Ki on Thrombin was found to be 1500 nM.
As for `N=C(N)c1ccc(CNC(=O)CNC(=O)[C@@H](CCc2ccccc2)NS(=O)(=O)Cc2ccccc2N)cc1` [Compound 19], on factor Xa, the “selectivity ratio SR” value is listed as 137 and the Ki was found to be 6.7 nM. The Ki on Thrombin was 920 nM.
With `N=C(N)c1ccc(CNC(=O)CNC(=O)[C@@H](CCc2ccncc2)NS(=O)(=O)Cc2ccccc2)cc1` [Compound 22], at factor Xa, the “selectivity ratio SR” value came out at 259 and the Ki came out at 2.7 nM. For the same molecule, the Ki at Thrombin was 700 nM.
Regarding `N=C(N)c1ccc(CNC(=O)CNC(=O)C(CCc2ccncc2)NS(=O)(=O)Cc2ccc([N+](=O)[O-])cc2)cc1` (stereo not drawn) [Compound 31], the “selectivity ratio SR” value on factor Xa worked out at 543. For the same molecule, the Ki was 3.5 nM on factor Xa and 1900 nM at Thrombin.
Taken in the same sequence, the figures for `N=C(N)c1ccc(CNC(=O)CNC(=O)[C@@H](CCc2ccccc2)NS(=O)(=O)Cc2ccncc2)cc1` [Compound 14] were 45, 80 nM and 3600 nM.
As to `N=C(N)c1ccc(CNC(=O)[C@H](CCC(=O)O)NC(=O)[C@@H](CCc2ccncc2)NS(=O)(=O)Cc2ccc(O)cc2)cc1` [Compound 33], on factor Xa, the “selectivity ratio SR” value stood at 27778 and the Ki is 3.6 nM. Besides, at Thrombin, the Ki was 100000 nM.
For `N=C(N)c1ccc(CNC(=O)[C@H](CO)NC(=O)[C@@H](CCc2ccccc2)NS(=O)(=O)Cc2ccncc2)cc1` [Compound 7, 4-PMs-dhomoPhe-Gly-4Amba×2 TFA], at factor Xa, the “selectivity ratio SR” value worked out at 7.2 and the Ki is 460 nM. Affinity on Thrombin was put at a Ki of 3300 nM.
Take `COC(=O)c1ccc(CS(=O)(=O)NC(CCc2ccncc2)C(=O)NCC(=O)NCc2ccc(C(=N)N)cc2)cc1` (stereo not drawn) [Compound 46]: the “selectivity ratio SR” value at factor Xa was 775. Also, the Ki on factor Xa came out at 9.8 nM; on Thrombin, 7600 nM.
For `N=C(N)c1ccc(CNC(=O)[C@H](CCC(=O)O)NC(=O)[C@@H](CCc2ccccc2)NS(=O)(=O)Cc2ccccc2)cc1` [Compound 50], in that order: 1153, 13 nM and 15000 nM.
Turning to `N=C(N)c1ccc(CNC(=O)[C@H](CCC(=O)O)NC(=O)[C@@H](CCc2ccc(O)cc2)NS(=O)(=O)Cc2ccc([N+](=O)[O-])cc2)cc1` [Compound 43], at factor Xa, the “selectivity ratio SR” value stood at 2000 and affinity was put at a Ki of 7.5 nM. In addition, the Ki at Thrombin was found to be 15000 nM.
For `N=C(N)c1ccc(CNC(=O)[C@H](CCCc2ccccc2)NC(=O)C(CCc2ccncc2)NS(=O)(=O)Cc2ccccc2)cc1` (stereo partly drawn) [Compound 38], in that order: 30, 6 nM and 180 nM.
Regarding `N=C(N)c1ccc(CNC(=O)CNC(=O)[C@@H](C/C=C/c2ccccc2)NS(=O)(=O)Cc2ccccc2)cc1` [Compound 58], on factor Xa, the “selectivity ratio SR” value stood at 3.1 and the Ki is 580 nM. Further, the Ki at Thrombin amounted to 1800 nM.
Take `N=C(N)c1ccc(CNC(=O)[C@H](CCC(=O)O)NC(=O)C(CCc2ccncc2)NS(=O)(=O)Cc2ccc([N+](=O)[O-])cc2)cc1` (stereo partly drawn) [Compound 37]: at factor Xa, the “selectivity ratio SR” value is listed as 6250 and affinity was put at a Ki of 5.6 nM. Moreover, at Thrombin, the Ki is 35000 nM.
`N=C(N)c1ccc(CNC(=O)CNC(=O)C(CCc2ccncc2)NS(=O)(=O)Cc2ccc(CC(=O)O)cc2)cc1` (stereo not drawn) [Compound 49]: the “selectivity ratio SR” value on factor Xa amounted to 2923. Besides, the Ki amounted to 13 nM on factor Xa and 38000 nM on Thrombin.
Taken in the same sequence, the figures for `N=C(N)c1ccc(CNC(=O)CNC(=O)[C@@H](CCCc2ccccc2)NS(=O)(=O)Cc2ccccc2)cc1` [Compound 55] were 3, 67 nM and 210 nM.
Take `N=C(N)c1ccc(CNC(=O)[C@H](CCC(=O)OCc2ccccc2)NC(=O)C(CCc2ccncc2)NS(=O)(=O)Cc2ccccc2)cc1` (stereo partly drawn) [Compound 39]: at factor Xa, the “selectivity ratio SR” value came to 26. Moreover, the Ki at factor Xa was found to be 6.4 nM; at Thrombin, 170 nM.
As to `N=C(N)c1ccc(CNC(=O)CNC(=O)[C@@H](CCc2ccccc2)NS(=O)(=O)NC2CCCCC2)cc1.O=C(O)C(F)(F)F` [Compound 18], the “selectivity ratio SR” value at factor Xa was 49. Besides, the results for the Ki at factor Xa and at Thrombin were 110 nM and 5400 nM, respectively.
As to `N=C(N)c1ccc(CNC(=O)[C@H](CO)NC(=O)[C@H](CCc2ccncc2)NS(=O)(=O)Cc2ccccc2)cc1` [Compound 3b, Bzls-D,L-homoAla(4-Pyr)-Ser-4Amba×2 TFA], the “selectivity ratio SR” value at factor Xa is 48.4. In addition, the Ki on factor Xa stood at 95 nM; at Thrombin it was 4600 nM.

These data come from patent US9090658B2, “Base-substituted benzylamine analogs for use as coagulation factor Xa inhibitors, the production and use thereof” (The Medicines Company (Leipzig) GmbH, priority 2003, dated 2015).
